Series [1] concerns cytosolic enzymes that convert Formula Ia to Formula Ia′. Nature of the series: in vitro. As to conditions: human.
Experimental: (§3) All incubations contained 3 mM magnesium chloride and NADPH-generating system in 0.5 mL of 50 mM potassium phosphate buffer, pH 7.4. Prior to the addition of drug, incubation mixtures were preincubated for 2 min at 37° C. […] The incubation mixtures were vortexed and centrifuged (˜10,000 g) at 4° C. for 10 min; supernatants were analyzed by HPLC coupled with radiometric detector. Heat activated S9 cofactor or mitochondria were used as control. For LC-MS analysis, supernatants were concentrated in SpeedVac for 3 hrs. Incubation volumes were 0.5 mL and the final concentration of the organic solvents in the incubation system was less than 1% (v/v).
(§4) The mobile phase consisted of 10 mM ammonium acetate adjusted to pH 7.0 with 1% ammonium hydroxide (A) and 100% methanol (B).
For series [2] the test system is unchanged. Kind of series: Inhibition of metabolism of 14C-Formula Ia to Formula Ia′ in human liver cytosol. The conditions noted are these: human; for inhibition at 120 min: pH 7.4.
Experimental: as §3, §4
The nature of series [3]: In vivo inhibition study of Formula Ia with AKR competitor diflunisal, plasma PK. As to conditions: cynomolgus monkeys plasma; as a function of diflunisal dose 0, 62.5, 125, 250 mg. How it is done:
An in vivo study was conducted in cynomolgus monkeys where 200 mg Formula Ia and 0 (control), 62.5, 125, or 250 mg diflunisal (Dolobid) was administered as illustrated below. All six monkeys were first dosed with Formula Ia with blood samples collected over a 12 hr period for plasma pharmacokinetics (PK) of Formula Ia prior to administration of diflunisal (dose-escalation). Four doses of diflunisal were subsequently administered every 12 hr with Formula Ia administered at each 4th diflunisal dose after which blood samples were collected for PK assessment of Formula Ia. The following chart summarizes the timing of Formula Ia and diflunisal administration.

A further series concerns the target T1, AKR1C3 (Homo sapiens, UniProt P42330).
T1 sequence (P42330 1-323): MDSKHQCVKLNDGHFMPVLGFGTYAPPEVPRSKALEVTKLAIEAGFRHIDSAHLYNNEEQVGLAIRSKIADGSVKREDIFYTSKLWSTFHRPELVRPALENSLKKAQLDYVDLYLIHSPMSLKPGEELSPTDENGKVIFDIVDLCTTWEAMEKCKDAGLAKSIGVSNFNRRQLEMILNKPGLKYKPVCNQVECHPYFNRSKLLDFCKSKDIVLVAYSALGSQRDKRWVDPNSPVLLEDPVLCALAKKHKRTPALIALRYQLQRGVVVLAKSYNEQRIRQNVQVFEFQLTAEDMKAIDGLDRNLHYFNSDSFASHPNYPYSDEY
Kind of series: Incubation with S9 fraction of recombinant human AKR1C3. Also on record: made in house. Type of series: in vitro ADME. As to conditions: 20 μM 14C-radiolabeled compound; S9 2.5 mg protein/mL; NADPH. Here is the method:
(§1) Recombinant human AKRs (AKR1C2, AKR1C3 and AKR1C4) were grown, sonicated and centrifuged at ˜10,000 g to obtain S9 fractions. Incubations of ^14C-radiolabeled compound of Formula Ia, ^14C-radiolabeled compound of Formula Ib and ^14C-radiolabeled compound of Formula Ic (all at 20 μM) with S9-fractions from three recombinant human AKRs (2.5 mg protein/mL) were conducted as described above. [drawing 161]
(§2) The samples were analyzed by HPLC-coupled with radiometric detector and confirmed by LC-MS.

The next series has as its target T2, AKR1C2 (Homo sapiens, UniProt P52895).
T2 sequence (P52895 1-323): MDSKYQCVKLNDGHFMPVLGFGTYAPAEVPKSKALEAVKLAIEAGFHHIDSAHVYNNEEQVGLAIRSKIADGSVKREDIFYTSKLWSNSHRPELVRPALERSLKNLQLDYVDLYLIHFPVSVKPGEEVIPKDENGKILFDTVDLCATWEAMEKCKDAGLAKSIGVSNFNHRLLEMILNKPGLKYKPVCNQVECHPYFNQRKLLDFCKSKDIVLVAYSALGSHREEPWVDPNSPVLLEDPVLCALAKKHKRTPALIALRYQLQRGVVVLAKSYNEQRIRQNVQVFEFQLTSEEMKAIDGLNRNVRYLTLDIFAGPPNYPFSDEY
Kind of series: Incubation with S9 fraction of recombinant human AKR1C2. The format is in vitro ADME. More on the design: made in house. The conditions noted are these: 20 μM 14C-radiolabeled compound; S9 2.5 mg protein/mL; NADPH. How it is done: as §1, §2

Series [4] concerns cytosolic enzymes that convert Formula Ia to Formula Ia′. Kind of series: Inhibition of metabolism of 14C-Formula Ia to Formula Ia′ in human liver S9. The format is in vitro ADME. As to conditions: human, pH 7.4.
[5] abbreviates: pH 7.4, % Inhibition on Metabolite Formation of Compound Formula Ia.
Where [6] appears, read: pH 7.4, % of Inhibition on Metabolite Formation of Compound Formula Ia.
The mark [7] stands for this setting: pH 7.4, inhibited formation of the compound of Formula Ia′.

Consider `Oc1ncnc2[nH]ncc12` [Allopurinol], for which, in the series with human liver cytosol, the “inhibited formation of the compound of Formula Ia′” value is on record as “no inhibition”. In addition, the inhibition (as a rule, the share of the control response that was lost under treatment) at 2 h, 100 µM in series [1] (setting [5]) turned out to be 2%.

`CC(C)=CCC/C(C)=C/COc1c2ccoc2cc2oc(=O)ccc12` [Bergamottin]: in series [1] (setting [6]), the inhibition at 2 h, 10 µM turned out to be 10%.

Turning to `Cc1ccc(-c2cc(C(F)(F)F)nn2-c2ccc(S(N)(=O)=O)cc2)cc1` [Celecoxib], in series [1] (setting [5]), the inhibition at 120 min, 2 μM is 8.42%; the inhibition at 120 min, 10 μM stood at 9.18%; the inhibition at 120 min, 50 μM was 20.5%. Besides, the inhibition at 2 h, 50 µM in series [1] (setting [6]) stood at 20.5%.

Turning to `O=C(O)Cc1ccccc1Nc1c(Cl)cccc1Cl` [Diclofenac], the inhibition at 2 h, 7 µM in series [1] (setting [6]) amounted to 57.3%.

As for `CCc1cccc2c3c([nH]c12)C(CC)(CC(=O)O)OCC3` (stereo not shown) [Etodolac], the inhibition at 2 h, 100 µM in series [1] (setting [6]) was determined as 3.74%.

Consider `CC(C(=O)O)c1cccc(Oc2ccccc2)c1` (stereo not shown) [Fenoprofen], for which the inhibition at 2 h, 80 µM in series [1] (setting [6]) was 14.2%.

Regarding `O=C(O)c1ccccc1Nc1cccc(C(F)(F)F)c1` [Flufenamic acid, N-(3-trifluoromethylphenyl)anthranilic acid], in series [1] (setting [5]), the inhibition at 2 h, 100 µM was found to be 80.3%. Further, the inhibition at 120 min in series [1] (setting [7]) came out at 80.3%.

For `CN1C(=O)CN=C(c2ccccc2F)c2cc([N+](=O)[O-])ccc21` [Flunitrazepam], in series [2], the inhibition at 120 min was 51%.

`CC(C(=O)O)c1ccc(-c2ccccc2)c(F)c1` (stereo not shown) [Flurbirofen]: the inhibition at 2 h, 50 µM in series [1] (setting [6]) turned out to be 31.6%.

Regarding `CC(C)(C)NC(=O)N[C@H](C(=O)N1C[C@H]2[C@@H]([C@H]1C(=O)N[C@H](CC1CCC1)C(=O)C(N)=O)C2(C)C)C(C)(C)C` [Formula Ib], in series [3], the “AUC ratio (Formula Ia′ to AUC for the compound)” value is recorded as “decline”. In addition, on AKR1C3, the “metabolism by recombinant AKR1C3” value is on record as “preferentially metabolized”.

For the compound `CC(C)(C)NC(=O)N[C@H](C(=O)N1C[C@H]2[C@@H]([C@H]1C(=O)N[C@@H](CC1CCC1)C(=O)C(N)=O)C2(C)C)C(C)(C)C` [Formula Ic, (1R,2S,5S)—N-[(1S)-3-amino-1-(cyclobutylmethyl)-2,3-dioxopropyl]-3-[(2S)-2-[[[(1,1-dimethylethyl)amino]carbonyl]amino]-3,3-dimethyl-1-oxobutyl]-6,6-dimethyl-3-azabicyclo[3.1.0]hexane-2-carboxamide], the “AUC ratio (Formula Ia′ to AUC for the compound)” value in series [3] was “decline”. Besides, the “metabolism by recombinant AKR1C2” value on AKR1C2 is on record as “preferentially metabolized”.

Turning to `Cc1ccc(C)c(OCCCC(C)(C)C(=O)O)c1` [Gemfibrozil, 5-(2,5-dimethylphenoxy)-2,2-dimethylpentanoic acid], in series [1] (setting [5]), the inhibition at 120 min, 100 µM amounted to 27.4% and the inhibition at 120 min, 100 μM came out at 27.4%.

In the case of `CC(C)Cc1ccc(C(C)C(=O)O)cc1` (stereo not shown) [Ibuprofen], in series [1] (setting [5]), the inhibition at 120 min, 50 µM amounted to 21.9%; the inhibition at 120 min, 50 μM was determined as 31.3%; the inhibition at 120 min, 100 µM came to 31.4%; the inhibition at 120 min, 100 μM was determined as 33.4%. In series [1] (setting [5]), the inhibition at 120 min, 200 µM is 40.7%; the inhibition at 120 min, 200 μM stood at 43.3%; the inhibition at 120 min, 500 µM was determined as 56.6%; the inhibition at 120 min, 1000 µM stood at 70%. In addition, in series [1] (setting [5]), the inhibition at 120 min, 1000 μM was determined as 70%. Further, the inhibition at 2 h, 200 µM in series [1] (setting [6]) is 43.3%. For the same compound, the inhibition at 120 min in series [1] (pH 7.4, inhibited metabolism of 14C-radiolabeled compound of Formula Ia) is 70%.

As to `COc1ccc2c(c1)c(CC(=O)O)c(C)n2C(=O)c1ccc(Cl)cc1` [Indomethacin], in series [1] (setting [5]), the inhibition at 120 min, 100 µM is 19% and the inhibition at 120 min, 100 μM amounted to 19%. For the same compound, in series [1] (setting [6]), the inhibition at 2 h, 100 µM amounted to 19%.

For the compound `O=C(c1ccccc1)c1ccc2n1CCC2C(=O)O` (stereo not shown) [Ketorolac], in series [1] (setting [6]), the inhibition at 2 h, 4 µM stood at 0%.

For `Cc1cccc(Nc2ccccc2C(=O)O)c1C` [Mefenamic acid], in series [1] (setting [6]), the inhibition at 2 h, 1 µM turned out to be 14.6% and the inhibition at 2 h, 10 µM was 51.1%.

As for `CC1=CC(=O)c2ccccc2C1=O` [Menadione], the inhibition at 120 min, 100 µM in series [4] was found to be 18%; in series [1] (setting [7]), 30%. Further, the inhibition at 2 h, 100 µM in series [1] (setting [5]) was 29.7%.

For `Cc1ncc2n1-c1ccc(Cl)cc1C(c1ccccc1F)=NC2` [Midazolam], the inhibition at 120 min in series [2] came out at 37%.

Turning to `COc1ccc2cc(CCC(C)=O)ccc2c1` [Nabumetone], the inhibition at 2 h, 200 µM in series [1] (setting [6]) amounted to 42.4%.

In the case of `O=C1C[C@@H](c2ccc(O)cc2)Oc2cc(O)cc(O)c21` [Naringenin], in series [2] (pooled human liver cytosol, pH 7.4, probe 14C-radiolabeled compound of Formula Ia (20 μM), % of Inhibition on Metabolite Formation of Compound Formula Ia, Table 5, human liver cytosol, 2 hr incubation, 500 μM), the inhibition at 2 h, 500 µM came to 86.7%.

Take `O=C(O)CCc1nc(-c2ccccc2)c(-c2ccccc2)o1` [Oxaprozin]: the inhibition at 2 h, 500 µM in series [1] (setting [6]) was 76.1%.

On to `C#CCN(C)Cc1ccccc1` [Pargyline], for which, in the series with human liver cytosol, the “inhibited formation of the compound of Formula Ia′” value is reported as “no inhibition”. For the same compound, in series [1] (setting [5]), the inhibition at 2 h, 1 µM is 0%.

With `O=C1OC(c2ccc(O)cc2)(c2ccc(O)cc2)c2ccccc21` [Phenolphthalein], the inhibition at 120 min, 100 μM in series [1] (setting [5]) was determined as 86.1%. In series [1] (setting [7]), this compound had an inhibition at 120 min of 86.1%.

As for `O=c1c(O)c(-c2ccc(O)c(O)c2)oc2cc(O)cc(O)c12` [Quercetin], the values for the inhibition at 120 min, 100 µM in series [4] and in series [1] (setting [7]) were 9.3% and 33.4%, respectively. Besides, the inhibition at 2 h, 100 µM in series [1] (setting [5]) came out at 33.4%.

Take `NC(=O)c1ncn([C@@H]2O[C@H](CO)[C@@H](O)[C@H]2O)n1` [Ribavirin]: in series [1] (setting [5]), the inhibition at 120 min, 10 μM worked out at 1.76% and the inhibition at 120 min, 30 μM turned out to be 0%.

Take `CC1=C(CC(=O)O)c2cc(F)ccc2/C1=C\c1ccc([S+](C)[O-])cc1` (stereo not shown) [Sulindac]: in series [2] (pooled human liver cytosol, pH 7.4, probe 14C-radiolabeled compound of Formula Ia (20 μM), % of Inhibition on Metabolite Formation of Compound Formula Ia, Table 5, human liver cytosol, 2 hr incubation, 30 μM), the inhibition at 2 h, 30 µM was 19%.

In the case of `Cc1ccc(C(=O)c2ccc(CC(=O)O)n2C)cc1` [Tolmetin], the inhibition at 2 h, 125 µM in series [1] (setting [6]) was found to be 2.14%.

Values taken from patent publication US20070232527A1, “Medicaments and methods combining a HCV protease inhibitor and an AKR competitor” (priority 2005, published 2007).
